Converted amounts (≈) assume the structure as drawn.
What was measured:
Kinetic solubility test = assay type: physicochemical; settings: water, 25 °C, kinetic from dmso stock
Text: Solubility(μmol/L)=Areafiltered×DFfiltered/Areastd×DFstd×[std]×DFstd

RORα = target: T1, RORα (Homo sapiens, UniProt P35398); assay: Luciferase reporter assay (G6Pase or FGF21 promoter) in HEK293T cells cotransfected with RORα; assay type: cell-based; settings: Fig. S34
T1 construct: HEK293T cells co-transfected with a full-length RORα gene and a luciferase reporter gene; expressed in transfected cells; host or cells: HEK293T
T1 sequence (P35398 1-523): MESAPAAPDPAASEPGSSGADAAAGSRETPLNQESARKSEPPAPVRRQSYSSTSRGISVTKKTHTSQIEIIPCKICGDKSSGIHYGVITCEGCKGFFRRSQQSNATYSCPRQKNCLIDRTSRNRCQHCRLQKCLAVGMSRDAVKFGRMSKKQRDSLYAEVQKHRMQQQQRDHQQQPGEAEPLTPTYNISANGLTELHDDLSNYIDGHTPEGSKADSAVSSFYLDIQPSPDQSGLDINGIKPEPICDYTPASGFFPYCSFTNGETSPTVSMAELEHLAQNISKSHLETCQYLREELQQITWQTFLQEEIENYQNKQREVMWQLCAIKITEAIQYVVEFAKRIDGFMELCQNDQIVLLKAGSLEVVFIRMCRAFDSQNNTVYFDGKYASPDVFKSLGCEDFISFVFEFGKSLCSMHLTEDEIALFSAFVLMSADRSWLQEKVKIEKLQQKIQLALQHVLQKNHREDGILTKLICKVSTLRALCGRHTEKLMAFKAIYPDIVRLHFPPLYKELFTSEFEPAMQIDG
Procedure: HEK293T cells were transfected with Lipofectamine 8000 (ThermoFisher) strictly following the manufacturer’s instructions. Cotransfected HEK293T cells with RORα or RORγ plasmid and a reporter consisting of the G6Pase or FGF21 promoters upstream of a luciferase reporter gene. 500 ng plasmid DNA was transfected into each well of 24 well-plate 24 h after the transfection, DMSO or Gala-SR and SR1078 (5 µmol/L) was added and incubated for 24 h. The Lumicycle instrument detects luminescence and records the numerical value.

[1] = tested on: Per2-dLuc and Bmal1-dLuc U2OS cells; assay: Real-time bioluminescence monitoring of Per2-dLuc and Bmal1-dLuc U2OS cells; assay type: cell-based, human; settings: U2OS reporter cells, 5 μmol/L, vs DMSO
Procedure: Two clonal circadian reporter cell lines, Bmal1-dLuc and Per2-dLuc, were established and used in this study.[36] These two cell lines display robust cellular rhythmicity with near anti-phasic oscillation of bioluminescence expression. The lentivirus preparation, transduction of U2OS cells and selection of the knockout candidates with puromycin (at […] concentration) were performed using a previously published protoco.[37] LumiCycle (Actimetrics, Inc., Evanston, IL) detect for U2OS cells stably expressing Bmal1-dLuc and Per2-dLuc cells were seeded on an opaque 24-well plate. When the cells are full, which were treated with dexamethasone (DEX) (100 nmol/L final) for 2 h for resetting, 2 h later, the media of cells were replaced with bioluminescence recording media having DMEM culture medium (Gibco 21063029, 500 mL), 70 mL 12% FBS. Luciferin (0.1 mmol/L final) was added fresh to the bioluminescence media. Molecules at determined concentrations were supplied to the recording media (final DMSO concentration is 0.1%).

Row | Structure (SMILES) | solubility kinetic at 2 h (Kinetic solubility test) [µM] | RORα transcriptional activity (RORα) | circadian rhythm amplitudes [1] | period or phase of the circadian rhythm [1]
1 | O=C(Nc1ccc(C(OCO[C@@H]2O[C@H](CO)[C@@H](O[C@H]3O[C@H](CO)[C@@H](O)[C@H](O)[C@H]3O)[C@H](O)[C@H]2O)(C(F)(F)F)C(F)(F)F)cc1)c1ccc(C(F)(F)F)cc1 [Malt-SR] | 286 (≈ 225 µg/mL) |  |  | 
2 | O=C(Nc1ccc(C(OCO[C@H]2O[C@H](CO)[C@@H](O)[C@H](O)[C@@H]2O)(C(F)(F)F)C(F)(F)F)cc1)c1ccc(C(F)(F)F)cc1 [Mann-SR] | 198 (≈ 124 µg/mL) |  |  | 
3 | Cc1ccc(C(=O)Nc2ccc(C(O)(C(F)(F)F)C(F)(F)F)cc2)cc1 [compound 9, reference compound] |  | successful inhibition | downregulate the amplitudes | without disrupting the fundamental period or phase

Source: publication PMC12575728, “Galactose-modified small molecule modulator targets RORα to enhance circadian rhythm and alleviate periodontitis-associated alveolar bone loss” (Bone Research, 2025)
